Measured values published in patent US10696671B2, “Imidazo[1,2-A]pyridine derivatives, methods for preparing the same and use thereof” (Jeil Pharmaceutical Co., Ltd., priority 2016, dated 2020).

Biological target: T1, proton pump (H+/K+-ATPase), porcine gastric vesicles (Sus scrofa, UniProt P19156)
T1 construct: reaction buffer (50 mmol/L Tris-Hepes buffer, pH 6.4) containing porcine gastric vesicles; from tissue; host or cells: porcine gastric mucosa (gastric vesicles prepared by centrifugation)
T1 sequence (P19156 2-1034 limits assumed): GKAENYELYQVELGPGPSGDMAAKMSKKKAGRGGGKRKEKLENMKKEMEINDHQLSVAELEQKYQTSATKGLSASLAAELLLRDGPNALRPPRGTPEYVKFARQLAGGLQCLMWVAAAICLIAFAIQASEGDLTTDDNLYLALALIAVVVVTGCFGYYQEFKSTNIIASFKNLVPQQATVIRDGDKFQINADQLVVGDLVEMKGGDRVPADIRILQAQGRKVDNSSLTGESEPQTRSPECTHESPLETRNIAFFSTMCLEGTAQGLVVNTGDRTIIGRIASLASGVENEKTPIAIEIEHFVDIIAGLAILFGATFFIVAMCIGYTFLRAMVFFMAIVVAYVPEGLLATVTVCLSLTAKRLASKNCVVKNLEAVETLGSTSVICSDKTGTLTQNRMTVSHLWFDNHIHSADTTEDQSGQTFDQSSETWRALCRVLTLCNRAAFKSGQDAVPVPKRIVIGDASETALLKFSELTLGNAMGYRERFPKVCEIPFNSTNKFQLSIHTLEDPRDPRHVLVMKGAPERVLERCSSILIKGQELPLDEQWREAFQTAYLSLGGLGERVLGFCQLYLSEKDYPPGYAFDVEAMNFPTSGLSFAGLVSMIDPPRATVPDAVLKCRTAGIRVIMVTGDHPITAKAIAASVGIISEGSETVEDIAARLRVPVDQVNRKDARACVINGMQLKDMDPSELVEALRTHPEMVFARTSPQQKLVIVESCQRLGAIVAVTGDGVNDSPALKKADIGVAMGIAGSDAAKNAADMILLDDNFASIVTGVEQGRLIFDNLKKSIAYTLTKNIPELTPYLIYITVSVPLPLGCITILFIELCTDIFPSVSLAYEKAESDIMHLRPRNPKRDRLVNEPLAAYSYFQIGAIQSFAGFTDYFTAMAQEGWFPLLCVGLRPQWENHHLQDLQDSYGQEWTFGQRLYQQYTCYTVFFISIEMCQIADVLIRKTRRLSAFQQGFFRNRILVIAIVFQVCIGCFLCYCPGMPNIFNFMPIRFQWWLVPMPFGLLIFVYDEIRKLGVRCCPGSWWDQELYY
T1 sequence (P18434 whole entry partner): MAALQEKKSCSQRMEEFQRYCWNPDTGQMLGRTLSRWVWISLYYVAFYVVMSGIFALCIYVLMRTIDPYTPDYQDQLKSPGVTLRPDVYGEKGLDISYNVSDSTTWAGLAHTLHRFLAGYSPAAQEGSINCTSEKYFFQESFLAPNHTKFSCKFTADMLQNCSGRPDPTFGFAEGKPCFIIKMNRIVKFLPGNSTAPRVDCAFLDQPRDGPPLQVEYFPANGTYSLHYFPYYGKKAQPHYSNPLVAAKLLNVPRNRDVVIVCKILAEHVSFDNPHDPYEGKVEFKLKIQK
Test: Inhibitory effects against proton pump (H+/K+-ATPase) activity, malachite green phosphate assay
Type: biochemical
Settings: pH 6.4, 37° C., K+-dependent activity
Experimental: Test Example 1: Preparation of Gastric Vesicles
Gastric vesicles used in the experiment were prepared by separation from porcine gastric mucosa according to a centrifugation method [Saccomani G, et al., A Nonelectrogenic H^+ Pump in Plasma Membranes of Hog Stomach, J Biol Chem., 1976, 251 (23), 7690-8]. Next, the protein content of the gastric vesicles was quantified using a bicinchoninic acid kit [Smith P K, et al., Measurement of protein using bicinchoninic acid, Anal Biochem., 1985, 150 (1), 76-85)].
Test Example 2: Measurement of Inhibitory Effects Against Proton Pump (H^+/K^+-ATPase) Activity
The inhibitory effects of the compounds against proton pump activity were calculated based on the pump activity determined in the presence of K^+ ions excluding the pump activity determined in the absence of K^+ ions. The inhibitory effects against proton pump activity were measured in 96-well plates, and all reactions were performed with a reaction volume of […] at 37° C. Specifically, 10 μm of valinomycin and each concentration of each compound were pre-incubated in a reaction buffer (50 mmol/L Tris-Hepes buffer, pH 6.4) containing porcine gastric vesicles for 15 minutes. For negative and positive control groups, 1% DMSO was added to buffer, and for test groups, 1% DMSO and a dilution of each concentration of each compound were added. Next, 0.2 mmol/L of adenosine triphosphate (ATP) was added to the reaction buffer and incubated at 37° C. for 40 minutes. After completion of the incubation, a malachite green solution was added to the reaction buffer and incubated for 30 minutes, and the amount of inorganic phosphate in the reaction buffer was measured by colorimetry using a malachite green phosphate assay Kit (Bioassay Systems). For colorimetry, the OD (optical density) at 620 nm was measured using a microplate reader [Synergy H4, hybrid multimode microplate reader, BioTek]. The percent inhibition of proton pump (H^+/K^+-ATPase) was determined based on the OD value of the control group and the OD values of various concentrations of the test compounds, and the IC50 of each test compound was calculated using the Logistic 4-parameter function of Sigmaplot 8.0 program.

Structure (SMILES) | IC50
COCC1CN(C(=O)c2cc(NCc3c(C)cc(F)cc3C)c3nc(C)c(C)n3c2)C1 [Example 40, {8-[(4-fluoro-2,6-dimethylbenzyl)amino]-2,3-dimethylimidazo[1,2-α]pyridin-6-yl}[3-(methoxymethyl)azetidin-1-yl]methanone] | 0.134 µM
Cc1cc(F)cc(C)c1CNc1cc(C(=O)N2CC(C)(O)C2)cn2c(C)c(C)nc12 [Example 38, {8-[(4-fluoro-2,6-dimethylbenzyl)amino]-2,3-dimethylimidazo[1,2-α]pyridin-6-yl}(3-hydroxy-3-methylazetidin-1-yl)methanone] | 0.041 µM
Cc1ccc(Cl)c(C)c1CNc1cc(C(=O)N2CC(O)C2)cn2c(C)c(C)nc12 [Example 46] | 0.163 µM
CC(=O)OC1CN(C(=O)c2cc(NCc3c(C)cccc3C)c3nc(C)c(C)n3c2)C1 [Example 2, 1-{8-[(2,6-dimethylbenzyl)amino]-2,3-dimethylimidazo[1,2-α]pyridine-6-carbonyl}azetidin-3-yl acetate] | 0.128 µM
Cc1cc(F)ccc1CNc1cc(C(=O)N2CC(C)(O)C2)cn2c(C)c(C)nc12 [Example 31, {8-[(4-fluoro-2-methylbenzyl)amino]-2,3-dimethylimidazo[1,2-α]pyridin-6-yl}(3-hydroxy-3-methylazetidine-1-yl)methanone] | 0.662 µM
COC1(C)CN(C(=O)c2cc(NCc3c(C)cccc3C)c3nc(C)c(C)n3c2)C1 [Example 32, {8-[(2,6-dimethylbenzyl)amino]-2,3-dimethylimidazo[1,2-α]pyridin-6-yl}(3-methoxy-3-methylazetidin-1-yl)methanone] | 0.187 µM
Cc1ccc(Cl)c(C)c1CNc1cc(C(=O)N2CC(CO)C2)cn2c(C)c(C)nc12 [Example 48, {8-[(3-chloro-2,6-dimethylbenzyl)amino]-2,3-dimethylimidazo[1,2-α]pyridin-6-yl}[3-(hydroxymethyl)azetidin-1-yl]methanone] | 0.102 µM
COC1CN(C(=O)c2cc(NCc3c(C)cccc3C)c3nc(C)c(C)n3c2)C1 [Example 3, {8-[(2,6-dimethylbenzyl)amino]-2,3-dimethylimidazo[1,2-α]pyridin-6-yl}(3-methoxyazetidin-1-yl)methanone] | 0.09 µM
Cc1cc(F)ccc1CNc1cc(C(=O)N2CC(F)C2)cn2c(C)c(C)nc12 [Example 29, {8-[(4-fluoro-2-methylbenzyl)amino]-2,3-dimethylimidazo[1,2-α]pyridin-6-yl}(3-fluoroazetidin-1-yl)methanone] | 0.645 µM
Cc1cccc(C)c1CNc1cc(C(=O)N2CC(S(C)(=O)=O)C2)cn2c(C)c(C)nc12 [Example 19, {8-[(2,6-dimethylbenzyl)amino]-2,3-dimethylimidazo[1,2-α]pyridin-6-yl}[3-(methylsulfonyl)azetidin-1-yl]methanone] | 0.117 µM
Cc1cc(F)cc(C)c1CNc1cc(C(=O)N2CC(C)C2)cn2c(C)c(C)nc12 [Example 37, {8-[(4-fluoro-2,6-dimethylbenzyl)amino]-2,3-dimethylimidazo[1,2-α]pyridin-6-yl}(3-methylazetidin-1-yl)methanone] | 0.021 µM
Cc1cc(F)cc(C)c1CNc1cc(C(=O)N2CCC2)cn2c(C)c(C)nc12 [Example 35, azetidin-1-yl{8-[(4-fluoro-2,6-dimethylbenzyl)amino]-2,3-dimethylimidazo[1,2-α]pyridin-6-yl}methanone] | 0.016 µM
Cc1cccc(C)c1CNc1cc(C(=O)N2CC3(CNC3)C2)cn2c(C)c(C)nc12 [Example 21, {8-[(2,6-dimethylbenzyl)amino]-2,3-dimethylimidazo[1,2-α]pyridin-6-yl}(2,6-diazaspiro[3.3]heptan-2-yl)methanone] | 0.6 µM
Cc1ccc(Cl)c(C)c1CNc1cc(C(=O)N2CCC2)cn2c(C)c(C)nc12 [Example 45, azetidin-1-yl{8-[(3-chloro-2,6-dimethylbenzyl)amino]-2,3-dimethylimidazo[1,2-α]pyridin-6-yl}methanone] | 0.081 µM
Cc1ccc(Cl)c(C)c1CNc1cc(C(=O)N2CC(F)C2)cn2c(C)c(C)nc12 [Example 47, {8-[(3-chloro-2,6-dimethylbenzyl)amino]-2,3-dimethylimidazo[1,2-α]pyridin-6-yl}(3-fluoroazetidin-1-yl)methanone] | 0.624 µM
CCOC1CN(C(=O)c2cc(NCc3c(C)cccc3C)c3nc(C)c(C)n3c2)C1 [Example 4, {8-[(2,6-dimethylbenzyl)amino]-2,3-dimethylimidazo[1,2-α]pyridin-6-yl}(3-ethoxyazetidin-1-yl)methanone] | 0.093 µM
COC(=O)C1CN(C(=O)c2cc(NCc3c(C)cccc3C)c3nc(C)c(C)n3c2)C1 [Example 10, methyl 1-{8-[(2,6-dimethylbenzyl)amino]-2,3-dimethylimidazo[1,2-α]pyridine-6-carbonyl}azetidine-3-carboxylate] | 0.048 µM
Cc1cccc(C)c1CNc1cc(C(=O)N2CC(CCO)C2)cn2c(C)c(C)nc12 [Example 20, {8-[(2,6-dimethylbenzyl)amino]-2,3-dimethylimidazo[1,2-α]pyridin-6-yl}[3-(2-hydroxyethyl)azetidin-1-yl]methanone] | 0.046 µM
COCCOC1CN(C(=O)c2cc(NCc3c(C)cccc3C)c3nc(C)c(C)n3c2)C1 [Example 5, {8-[(2,6-dimethylbenzyl)amino]-2,3-dimethylimidazo[1,2-α]pyridin-6-yl}[3-(2-methoxyethoxy)azetidin-1-yl]methanone] | 0.117 µM
Cc1cccc(C)c1CNc1cc(C(=O)N2CC(F)(CO)C2)cn2c(C)c(C)nc12 [Example 13, {8-[(2,6-dimethylbenzyl)amino]-2,3-dimethylimidazo[1,2-α]pyridin-6-yl}[3-fluoro-3-(hydroxymethyl)azetidin-1-yl]methanone] | 0.119 µM
Cc1cc(F)ccc1CNc1cc(C(=O)N2CCC2)cn2c(C)c(C)nc12 [Example 28, azetidin-1-yl {8-[(4-fluoro-2-methylbenzyl)amino]-2,3-dimethylimidazo[1,2-α]pyridin-6-yl}methanone] | 0.103 µM
COCC1CN(C(=O)c2cc(NCc3c(C)cccc3C)c3nc(C)c(C)n3c2)C1 [Example 12, {8-[(2,6-dimethylbenzyl)amino]-2,3-dimethylimidazo[1,2-α]pyridin-6-yl}[3-(methoxymethyl)azetidin-1-yl]methanone] | 0.065 µM
Cc1cc(F)ccc1CNc1cc(C(=O)N2CC(O)C2)cn2c(C)c(C)nc12 [Example 27, {8-[(4-fluoro-2-methylbenzyl)amino]-2,3-dimethylimidazo[1,2-α]pyridin-6-yl}(3-hydroxyazetidin-1-yl)methanone] | 0.135 µM
Cc1ccc(F)c(C)c1CNc1cc(C(=O)N2CC(O)C2)cn2c(C)c(C)nc12 [Example 41, {8-[(3-fluoro-2,6-dimethylbenzyl)amino]-2,3-dimethylimidazo[1,2-α]pyridin-6-yl}(3-hydroxyazetidin-1-yl)methanone] | 0.149 µM
Cc1ccc(F)c(C)c1CNc1cc(C(=O)N2CC(F)C2)cn2c(C)c(C)nc12 [Example 43, {8-[(3-fluoro-2,6-dimethylbenzyl)amino]-2,3-dimethylimidazo[1,2-α]pyridin-6-yl}(3-fluoroazetidin-1-yl)methanone] | 0.174 µM
Cc1cccc(C)c1CNc1cc(C(=O)N2CC(C(C)O)C2)cn2c(C)c(C)nc12 (stereo not drawn) [Example 15, {8-[(2,6-dimethylbenzyl)amino]-2,3-dimethylimidazo[1,2-α]pyridin-6-yl}[3-(1-hydroxyethyl)azetidin-1-yl]methanone] | 0.072 µM
